Results published in US20250144125A1 (priority 2021, published 2025).
Entries after “also recorded” stand apart in the source; their conditions may differ. Like-named read-outs stand apart in the source and are kept apart here.

How the values were obtained:
[1] = system: dengue virus 2 (New Guinea C strain); experiment: microbe, parasite or virus in culture; assay type: cell-based
MERS-CoV (EMC strain) = experiment: microbe, parasite or virus in culture; assay type: cell-based
[2] = system: influenza A (H1N1) virus (California/07/2009 strain); experiment: microbe, parasite or virus in culture; assay type: cell-based
Influenza A (H3N2) = experiment: microbe, parasite or virus in culture; assay type: cell-based; settings: H3N2, MDCK, read-out: EC50 Influenza A (H3N2)
in vitro [3] = settings: African green monkey
[4] = system: tacaribe virus (TRVL11573 strain); experiment: microbe, parasite or virus in culture; assay type: cell-based; settings: read-out: Tacaribe virus EC50 TRVL 11573 strain
MDCK cells = settings: dog
[5] = system: enterovirus-71 (Tainan/4643/98 strain); experiment: organism not typed; assay type: cell-based; settings: Vero 76, read-out: EC50 enterovirus-71
Huh7 cells = settings: read-out: Yellow fever virus CC50 Huh7, YFV screen
Influenza A (H5N1) = experiment: microbe, parasite or virus in culture; assay type: cell-based; settings: H5N1, MDCK, read-out: EC50 Influenza A (H5N1)
in vitro [6] = settings: dog, CC50 MDCK
Vero cells = settings: African green monkey
Influenza B = experiment: microbe, parasite or virus in culture; assay type: cell-based; settings: MDCK, read-out: EC50 Influenza B
[7] = system: measles virus (CC strain); experiment: microbe, parasite or virus in culture; assay type: cell-based
in vitro [8] = settings: African green monkey, Tacaribe virus CC50 Vero

Question: For CCc1ncnc2c1c(F)cn2[C@@H]1O[C@H](CO)[C@@H](O)[C@H]1O [3.1r, 6-Ethyl-7-Fluoro-9-β-D-ribofuranosyl-7-deazapurine], which “activity against dengue virus 2 in words” value [1] is on record?
Answer: low micromolar to submicromolar activity

Question: What about the “activity against MERS-CoV in words” value (MERS-CoV (EMC strain)) of the same molecule?
Answer: moderately active with low selectivity index; also recorded: low micromolar to submicromolar activity

Question: And the EC50 (MERS-CoV (EMC strain); Middle East respiratory syndrome-related coronavirus, Vero 76, read-out: MERS-CoV EC50 EMC strain)?
Answer: 3 µM

Question: What about the EC50 (MERS-CoV (EMC strain); read-out: MERS-CoV EC50 EMC strain) of the same molecule?
Answer: 2.5 µM

Question: And the EC50 ([2]; Influenza A virus, H1N1, MDCK, read-out: EC50 California/07/2009 strain)?
Answer: 0.34 µM

Question: And the EC50 ([2]; Influenza A virus, H1N1, MDCK, read-out: EC50 Influenza A (H1N1))?
Answer: 0.34 µM

Question: What about the EC50 ([2]; read-out: EC50 California/07/2009 strain) of the same molecule?
Answer: 0.32 µM

Question: What about the EC50 (Influenza A (H3N2)) of the same molecule?
Answer: < 0.1 µM

Question: And the CC50 (in vitro [3]; CC50)?
Answer: > 100 µM

Question: And the CC50 (in vitro [3]; Measles CC50 Vero 76)?
Answer: 32 µM

Question: What about the EC50 ([4]; Mammarenavirus tacaribeense, Vero) of the same molecule?
Answer: > 63 µM

Question: And the EC50 [4]?
Answer: 43 µM

Question: And the CC50 (MDCK cells)?
Answer: 43 µM

Question: And the EC50 [5]?
Answer: > 100 µM

Question: What about the CC50 (Huh7 cells; Neutral Red) of the same molecule?
Answer: 1.9 µM

Question: What about the CC50 (Huh7 cells; Visual) of the same molecule?
Answer: > 100 µM

Question: What about the CC50 (Vero 76 cells; African green monkey) of the same molecule?
Answer: 42 µM

Question: And the CC50 (Vero 76 cells; read-out: MERS-CoV CC50 Vero 76, Neutral Red, MERS-CoV screen)?
Answer: 46 µM

Question: And the CC50 (Vero 76 cells; read-out: MERS-CoV CC50 Vero 76, Visual, MERS-CoV screen)?
Answer: 100 µM

Question: What about the EC50 (Influenza A (H5N1)) of the same molecule?
Answer: < 0.1 µM

Question: What about the CC50 (in vitro [6]) of the same molecule?
Answer: 32 µM

Question: What about the CC50 (Vero cells) of the same molecule?
Answer: 59 µM

Question: And the EC50 (Influenza B)?
Answer: < 0.1 µM

Question: And the EC50 ([7]; Measles morbillivirus, Vero 76, read-out: Measles EC50 CC strain)?
Answer: 7.7 µM

Question: What about the EC50 ([7]; read-out: Measles EC50 CC strain) of the same molecule?
Answer: 9.6 µM

Question: And the CC50 (in vitro [8])?
Answer: 63 µM
